Results as given in ChEMBL document CHEMBL6096729, “Creating Glepaglutide, the First Long-Acting GLP-2 Analogue to Enable a Ready-to-Use Injection” (J Med Chem, 2025).

How the values were obtained:
[1] = target: T1, Glucagon-like peptide 2 receptor (Homo sapiens) (UniProt O95838); experiment: Agonist activity at recombinant human GLP-2R overexpressed in HEK293 cells assessed as cAMP accumulation by HTRF assay relative to control; assay type: functional, cell-based; conditions: filed as agonist
T1 sequence (whole entry): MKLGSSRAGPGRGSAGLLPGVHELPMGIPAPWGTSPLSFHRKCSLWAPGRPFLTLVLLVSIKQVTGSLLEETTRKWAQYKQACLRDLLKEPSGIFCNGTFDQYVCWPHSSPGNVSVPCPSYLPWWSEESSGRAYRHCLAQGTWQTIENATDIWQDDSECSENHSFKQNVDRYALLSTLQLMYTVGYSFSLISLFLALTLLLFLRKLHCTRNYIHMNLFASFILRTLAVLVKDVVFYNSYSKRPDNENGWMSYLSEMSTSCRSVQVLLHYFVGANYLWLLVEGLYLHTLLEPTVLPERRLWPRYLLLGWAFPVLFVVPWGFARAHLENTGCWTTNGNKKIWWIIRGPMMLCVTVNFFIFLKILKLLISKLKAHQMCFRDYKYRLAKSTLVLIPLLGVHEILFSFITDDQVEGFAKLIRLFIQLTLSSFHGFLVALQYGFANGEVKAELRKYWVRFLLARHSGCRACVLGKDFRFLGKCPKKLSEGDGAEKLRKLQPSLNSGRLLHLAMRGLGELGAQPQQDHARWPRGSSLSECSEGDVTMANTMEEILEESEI

[2] = Stability of compound assessed as change in fluorescence intensity measured after 96 hrs by ThT fibrillation assay; assay type: physicochemical
Mus musculus = experiment: Effect on small intestine of C57BL mouse assessed as mass of small intestine at 30 nmol/kg bid for 10 days relative to teduglutide; assay type: functional; conditions: time 10 day
[3] = target: T2, Glucagon-like peptide 2 receptor (Homo sapiens, UniProt O95838); experiment: Agonist activity at recombinant human GLP-2R overexpressed in HEK293 cells assessed as cAMP accumulation by HTRF assay; assay type: functional, cell-based
T2 sequence (O95838 whole entry): T1 sequence (whole entry)

[4] = Chemical stability in 50 mM Histidine at pH 7.0 at 40 degreeC assessed as fold decrease in total degradation measured after 3 weeks by HPLC analysis relative to teduglutide; assay type: physicochemical; conditions: buffer, pH 7, 504 h
[5] = Half life in human; assay type: ADME

Molecule	Efficacy [1]	Flu intensity [2]	Activity [2]	Activity (Mus musculus)	EC50 [3]	fold change (FC) [4]	half-life [5]
CC[C@H](C)[C@H](NC(=O)[C@H](Cc1ccccc1)NC(=O)[C@H](CC(=O)O)NC(=O)[C@H](CCCNC(=N)N)NC(=O)[C@H](C)NC(=O)[C@H](C)NC(=O)[C@H](CC(C)C)NC(=O)[C@H](CC(N)=O)NC(=O)[C@H](CC(=O)O)NC(=O)[C@H](CC(C)C)NC(=O)[C@@H](NC(=O)[C@@H](NC(=O)[C@H](CC(N)=O)NC(=O)[C@H](CCSC)NC(=O)[C@H](CCC(=O)O)NC(=O)[C@H](CC(=O)O)NC(=O)[C@H](CO)NC(=O)[C@H](Cc1ccccc1)NC(=O)[C@H](CO)NC(=O)CNC(=O)[C@H](CC(=O)O)NC(=O)CNC(=O)[C@@H](N)Cc1c[nH]cn1)[C@@H](C)O)[C@@H](C)CC)C(=O)N[C@@H](CC(N)=O)C(=O)N[C@@H](Cc1c[nH]c2ccccc12)C(=O)N[C@@H](CC(C)C)C(=O)N[C@H](C(=O)N[C@@H](CCC(N)=O)C(=O)N[C@H](C(=O)N[C@@H](CCCCN)C(=O)N[C@H](C(=O)N[C@H](C(=O)N[C@@H](CC(=O)O)C(=O)O)[C@@H](C)O)[C@@H](C)CC)[C@@H](C)O)[C@@H](C)CC	101%						
H-HGEGSFSDELSTILDALAARDFIAWLIATKITD-NH2		500 RFU					
H-HGEGSFSDELSTILDALAARDFIAWLIATKITDKKKKKK-OH			Not_active				
H-HGEGSFSSELSTILDALAARDFIAWLIATKITD-NH2	102%	500 RFU		106%	110 pM		
H-HGEGSFSSELSTILDALAARDFIAWLIATKITDKKKKKK-NH2	100%		Not_active	109%	180 pM		
H-HGEGTFSDELSTILDALAARDFIAWLIATKITD-NH2	104%	500 RFU		98%	90 pM		
H-HGEGTFSDELSTILDALAARDFIAWLIATKITDKKKKKK-NH2	102%		Not_active	105%	340 pM		
H-HGEGTFSSELATILDALAARDFIAWLIATKITD-NH2	100%		Not_active	117%	100 pM		
H-HGEGTFSSELATILDALAARDFIAWLIATKITDKKKKKK-NH2	102%		Not_active	109%	180 pM	2.6	88 h
H-HGEGTFSSELSTILDALAARDFIAWLIATKITD-NH2	101%	500 RFU		101%	180 pM		
H-HGEGTFSSELSTILDALAARDFIAWLIATKITDKKKKKK-NH2	102%		Not_active	106%	370 pM		
